Test results published in US9988371B2, “Benzimidazole analogues and related methods” (The Arizona Board of Regents, on Behalf of the University …, priority 2014, dated 2018).

What was measured:
[1] = system: pMAPK; assay: pMAPK immunoblot in TT cells; type: cell-based, human; conditions: 1 nM
Experimental: FIG. 3: Photographs of blots showing inhibition of RET protein endogenously expressed in TT cells (human MTC cell line expressing RET/C634W) by indicated concentrations of Pz-1 or vehicle (NT: not treated) and reduced effects in thyroid non-transformed Nthy-ori-3-1 cells. Serum-starved human TT and thyroid non-transformed Nthy-ori-3-1 cell lines were treated for 2 hr with indicated concentrations of Pz-1. 50 μg of total cell lysates were subjected to immunoblotting with anti-phospho-Y1062 (αp1062) and anti-phospho-905 (αpY905) RET antibodies, anti-phospho-MAPK (αpMAPK, T302/Y304), and anti-phospho-SHC (αpSHC, Y317) antibodies. The blots were normalized using anti-RET (αRET) and anti-SHC (αSHC).
The inhibition of RET auto-phosphorylation by Pz-1 was measured in several different cell lines including NIH3T3 fibroblasts expressing RET/C634Y or RET/M918T, TT expressing RET/C634W (MTC), Nthy-ory-3-1 (thyroid, non-transformed with RET; negative control), HEK293/RET/PTC1 (CCDC6-RET that can be found in PTC & lung cancer), HEK293/RET-KIF5B (that can be found in lung cancer), HEK293/RET/PTC3 (NCOA4-RET, that can be found in PTC & lung cancer), and HEK293 transfected with RET/C634R-V804M (FIGS. 1-3). […]
Protein lysates were prepared according to standard procedures. […] Immune complexes were detected with the enhanced chemiluminescence kit (Amersham Pharmacia Biotech, Little Chalfort, UK). […]

[2] = system: TT cells xenografted; assay: TT cell xenograft in SCID mice; type: in vivo; conditions: 0.3, 1.0, or 3.0 mg/kg daily, oral gavage, 28 days; all tested doses
From the text: FIG. 7: Anti-tumorigenic activity of Pz-1 on TT cells xenografted into SCID mice. […] Average volumes of tumors are reported±SD (standard deviation). TT cells (7.5×10^6/mouse) were inoculated subcutaneously into dorsal portions (both sides) of 39 female SCID mice (Jackson Laboratories, Bar Harbor, Me.). After 5 weeks, at least one tumour was present in each mouse and a total of 70 tumours were visible: 56 tumours were 40-150 mm^3 and 14 tumours were <40 mm^3. […] Tumor-bearing animals were randomly assigned to receive Pz-1 (0.3, 1.0, or 3.0 mg/kg, daily) (29 mice, 52 tumours) or vehicle (10 mice, 18 tumours) by oral gavage. Treatment was administered for 28 consecutive days. Tumor diameters were measured with calipers every week. Tumor volumes (V) were calculated by the rotational ellipsoid formula: V=A×B^2/2 (A=axial diameter; B=rotational diameter) and reported as average volumes±standard deviations. […]
TT cells (7.5×10^6/mouse) were inoculated subcutaneously into dorsal portions (both sides) of 39 SCID mice (Jackson Laboratories, Bar Harbor, Me.). […] Tumor diameters were measured with callipers every week. Tumor volumes (V) were calculated by the rotational ellipsoid formula: V=A×B^2/2 (A=axial diameter; B=rotational diameter) and reported as average volumes±standard deviations. […] Tumor diameters were measured with calipers every 1-2 days. […]

**Q.** What does the source list for `Cn1cc(-c2ccc3c(c2)ncn3-c2ccc(CC(=O)Nc3cc(C(C)(C)C)on3)cc2)cn1` [Pz-1, N-(5-(tert-butyl)isoxazol-3-yl)-2-(4-(5-(1-methyl-1H-pyrazol-4-yl)-1H-benzo[d]imidazol-1-yl)phenyl)acetamide]?
**A.** inhibition of pMAPK [1]: strongly inhibited; tumor growth [2]: strongly inhibited tumor growth
